# Measured values from patent US20180072770A1, “Influenza Virus Binding Peptides” (priority 2014, published 2018).
# No end group written: not given here.
# How the values were obtained:
# A/Aichi/2/68 H3N2 (X31) = format: binding, influenza A virus
# A/NewYork/55/2004 H3N2 = format: binding, influenza A virus
# A/California/7/2009 H1N1 = format: binding, influenza A virus
# [1] = tested on: X31 virus (A/Aichi/2/68 H3N2); test: Inhibition of influenza A virus binding to fetuin (SPR)
# A/Panama/2007/1999 H3N2 = format: cell-based, influenza A virus; conditions: read-out: Mean Ki(HAI)
# influenza A virus = format: cell-based
# A/Aichi/2/68 H3N2 [2] = format: cell-based, influenza A virus
# A/Aichi/2/68 H3N2 [3] = test: Viral fusion with human erythrocyte ghosts (R18 dequenching); format: cell-based, influenza A virus; conditions: concentration-dependent, maximum; pH 5; FIG. 7
# A/Aichi/2/68 H3N2 [4] = test: Infectivity inhibition assay (MTS, MDCK II cells); format: cell-based, influenza A virus; conditions: MOI 0.05, 24 h, concentration dependent, maximum, FIG. 8
# [5] = tested on: A/Mute swan/Germany/R901/06 H7N1
# A/Aichi/2/68 H3N2 [6] = tested on: A/Aichi/2/68 H3N2
# [7] = tested on: A/Mute swan/Germany/R901/06 K3141 H7N1
# [8] = tested on: influenza A virus strains H3N2 (X31), H7N1, H1N1, H5N1, H3N2 (Victoria), H3N2 (NY); format: binding
substance,measurement,setting,value
KKKKFYGYDVFF-NH2 [SEQ ID NO:28],factor of increased binding signal in comparison to SEQ ID NO:1,A/Aichi/2/68 H3N2 (X31),2
same,factor of enhanced binding capability in comparison to SEQ ID NO:1,A/NewYork/55/2004 H3N2,4
same,binding preference among the three tested strains,A/California/7/2009 H1N1,shifts the binding preference strongly to H1N1/2009
same,factor of enhanced binding capability in comparison to SEQ ID NO:1,A/California/7/2009 H1N1,24
same,IC50,"[1]; A/Aichi/2/68 H3N2 (X31), SPR, read-out: Inhibition of binding to fetuin (IC50, RB)",20 µM
same,"fold lower IC50,RB in comparison to reference peptide SEQ ID NO:1",[1]; X31,about 4.5 fold
same,Ki,A/Panama/2007/1999 H3N2,0.1 µM
same,"fold lower Ki(HAI) than the conventional peptides (SEQ ID NO:100, 101, 102)",influenza A virus,"up to 1,600 fold"
same,inhibition of viral attachment to single red blood cells,A/Aichi/2/68 H3N2 [2],up to 50%
same,inhibition of fusion efficiency with erythrocyte ghosts,A/Aichi/2/68 H3N2 [3],up to 40%
same,protection from infection / reduction of infectivity,A/Aichi/2/68 H3N2 [4],up to 55%
same,IC50,[5],30 µM
same,IC50,A/Aichi/2/68 H3N2 [6]; A/Aichi/2/68,18 µM
same,Ki,A/Aichi/2/68 H3N2 [6]; read-out: Mean Ki(HAI),31.9 µM
same,IC50,[7],23 µM
same,Ki,[7]; read-out: Mean Ki(HAI),36.5 µM
SEQ ID NO:34 (FLGYDVFF; Synthetically produced peptide),"relative binding preference for virus strains, in descending order",[8],"H3N2 (NY) over H5N1, H3N2 (X31) and H7N1"
SEQ ID NO:29 (FYYYDVFF; Synthetically produced peptide),binding preference among the three tested strains,A/California/7/2009 H1N1,shifts the binding preference strongly to H1N1/2009
SEQ ID NO:23 (FYYYDVFY; Synthetically produced peptide),binding preference among the three tested strains,A/California/7/2009 H1N1,shifts the binding preference strongly to H1N1/2009
SEQ ID NO:76 (FYDYDRFY; Synthetically produced peptide),virus binding (SPR),A/Aichi/2/68 H3N2 (X31),does not bind
same,virus binding (SPR),A/NewYork/55/2004 H3N2,specifically binds
same,virus binding (SPR),A/California/7/2009 H1N1,does not bind
SEQ ID NO:33 (FYGYDVAF; Synthetically produced peptide),"relative binding preference for virus strains, in descending order",[8],"H7N1 over H3N2 (X31), H3N2 (NY) and H5N1"
SEQ ID NO:97 (FYGYDVKF; Synthetically produced peptide),"relative binding preference for virus strains, in descending order",[8],"H5N1 over H7N1, H3N2 (X31) and H3N2 (NY)"
